{
  "source": "paper PMC5039936",
  "about": "(Clinical Pharmacology and Therapeutics, 2015)",
  "key": {"[1]": {"assay": "Population PK model of plasma orteronel in patients with mCRPC", "format": "in vivo, human"}, "[2]": {"assay": "Phase 1 single-dose renal impairment study C21010, plasma PK", "format": "in vivo, human", "settings": "for AUC(0-inf): human, plasma, po, 200 mg, AUCinf, geometric LSM, single oral 200 mg dose; for increase in mean AUCinf compared with normal renal function: single 200 mg dose"}, "[3]": {"assay": "Phase 1 renal impairment study C21010, urine PK", "format": "in vivo, human", "settings": "geometric mean; for CL renal: human, urine, oral, 200 mg, CLrenal"}, "[4]": {"assay": "Plasma protein binding by rapid equilibrium dialysis in study C21010", "format": "in vitro ADME", "settings": "human, oral, 200 mg, mean percent unbound of orteronel in plasma, range across the renal function groups"}, "[5]": {"assay": "In vitro clearance in human hepatocytes", "format": "in vitro ADME"}, "[6]": {"assay": "In vitro clearance in human liver microsomes", "format": "in vitro ADME"}, "[7]": {"settings": "ref unpublished data, Suri, A., Pusalkar, S., Li, Y., & Prakash, S. Clin. Pharmacol. Drug Development 2015, cited from earlier work"}},
  "note": "Several values for one entry are separate records, joined by “and”; a condition that tells them apart may be missing. Equal entries are not always repeated.",
  "data": [
    {"smiles": "CNC(=O)c1ccc2cc([C@@]3(O)CCn4cncc43)ccc2c1", "note": "[orteronel]", "values": [
      {"measurement": "ka", "setting": "[1]; base model, mean (SD)", "result": "2.1 (0.2) h^−1"},
      {"measurement": "predicted decrease in CL/F", "setting": "[1]; final PK model, reduction in CLcr from 92 to 46 mL/min", "result": 28, "unit": "%"},
      {"measurement": "BILI on ka", "setting": "[1]; final model covariate effect, mean (SD)", "result": "–0.46 (0.20)"},
      {"measurement": "CL/F", "setting": "[1]; final model, mean (SD)", "result": 17.7, "unit": "L/h"},
      {"measurement": "V/F", "setting": "[1]; final model, mean (SD)", "result": 261, "unit": "L"},
      {"measurement": "ka", "setting": "[1]; final model, mean (SD)", "result": "2.2 (0.3) h^−1"},
      {"measurement": "slope of regression of CL/F vs CLcr", "setting": "[2]; CL/F = 10.90 + 0.101*CLcr, r2 = 0.2177", "result": 0.101},
      {"measurement": "AUC(0-inf)", "setting": "[2]; mild chronic renal impairment (CLcr ≥60–89 mL/min)", "result": 11300, "unit": "ng·h/mL"},
      {"measurement": "AUC(0-inf)", "setting": "[2]; moderate chronic renal impairment (CLcr ≥30–59 mL/min)", "result": 13100, "unit": "ng·h/mL"},
      {"measurement": "AUC(0-inf)", "setting": "[2]; normal renal function (CLcr ≥90 mL/min), fasted", "result": 9500, "unit": "ng·h/mL"},
      {"measurement": "AUC(0-inf)", "setting": "[2]; severe chronic renal impairment (CLcr ≥15–29 mL/min)", "result": 17800, "unit": "ng·h/mL"},
      {"measurement": "increase in mean AUCinf compared with normal renal function", "setting": "[2]; mild chronic RI", "result": "18.6% and 19%"},
      {"measurement": "increase in mean AUCinf compared with normal renal function", "setting": "[2]; moderate chronic RI", "result": "38% and 38.4%"},
      {"measurement": "increase in mean AUCinf compared with normal renal function", "setting": "[2]; severe chronic RI", "result": "87% and 87.1%"},
      {"measurement": "CL renal", "setting": "[3]; mild chronic RI", "result": 97.8, "unit": "mL/min"},
      {"measurement": "CL renal", "setting": "[3]; moderate chronic RI", "result": 49.2, "unit": "mL/min"},
      {"measurement": "CL renal", "setting": "[3]; normal renal function", "result": 158, "unit": "mL/min"},
      {"measurement": "CL renal", "setting": "[3]; severe chronic RI", "result": 25.8, "unit": "mL/min"},
      {"measurement": "fraction of dose excreted as unchanged orteronel (Fe)", "setting": "[3]; mild chronic RI", "result": 33.1, "unit": "%"},
      {"measurement": "fraction of dose excreted as unchanged orteronel (Fe)", "setting": "[3]; moderate chronic RI", "result": 19.4, "unit": "%"},
      {"measurement": "fraction of dose excreted as unchanged orteronel (Fe)", "setting": "[3]; normal renal function", "result": 44.9, "unit": "%"},
      {"measurement": "fraction of dose excreted as unchanged orteronel (Fe)", "setting": "[3]; severe chronic RI", "result": 13.8, "unit": "%"},
      {"measurement": "fraction unbound at 2 h", "setting": "[4]", "result": "0.547 to 0.589"},
      {"measurement": "in vitro clearance", "setting": "[5]", "result": "no appreciable in vitro clearance"},
      {"measurement": "in vitro clearance", "setting": "[6]", "result": "no appreciable in vitro clearance"},
      {"measurement": "share of orteronel CL characterized as renal CL", "setting": "[7]; intact parent compound in urine", "result": 53, "unit": "%"},
      {"measurement": "share of CL characterized as other CL", "setting": "[7]; metabolites formed via hydrolysis, neither renal nor hepatic", "result": 19, "unit": "%"}
    ]}
  ]
}
